Measured values taken from patent US10640506B2, “Cyclobutyl substituted pyrrolopyridine and pyrrolopyrimidines derivatives as JAK inhibitors” (Incyte Corporation, priority 2010, dated 2020).
pIC50: −log10 of the molar value. Counter-ions that a name gives are not always drawn. Like-named read-outs stand apart in the source and are kept apart here.

Assays:
[1] = molecular target: human JAK1 (a.a. 837-1142) (Homo sapiens, UniProt P23458); assay: In vitro JAK kinase assay (HTRF, phosphorylation of biotinylated peptide), JAK1; assay type: biochemical; conditions: for pIC50: 1 mM ATP, read-out: JAK1 IC50
Chain of human JAK1 (a.a. 837-1142) (P23458 849-1154): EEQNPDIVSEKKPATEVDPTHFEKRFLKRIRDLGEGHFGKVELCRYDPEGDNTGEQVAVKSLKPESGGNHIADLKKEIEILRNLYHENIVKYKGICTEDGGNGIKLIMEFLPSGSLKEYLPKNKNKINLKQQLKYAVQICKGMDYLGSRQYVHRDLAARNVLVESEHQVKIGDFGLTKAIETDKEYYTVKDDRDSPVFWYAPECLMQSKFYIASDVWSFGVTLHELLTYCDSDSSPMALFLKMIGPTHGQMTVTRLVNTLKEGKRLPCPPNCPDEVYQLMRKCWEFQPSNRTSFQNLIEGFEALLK
Procedure: Compounds herein were tested for inhibitory activity of JAK targets according to the following in vitro assay described in Park et al., Analytical Biochemistry 1999, 269, 94-104. The catalytic domains of human JAK1 (a.a. 837-1142) and JAK2 (a.a. 828-1132) with an N-terminal His tag were expressed using baculovirus in insect cells and purified. The catalytic activity of JAK1 and JAK2 was assayed by measuring the phosphorylation of a biotinylated peptide. The phosphorylated peptide was detected by homogenous time resolved fluorescence (HTRF). […] Reactions were carried out at room temperature for 1 hour and then stopped with 20 μL 45 mM EDTA, 300 nM SA-APC, 6 nM Eu-Py20 in assay buffer (Perkin Elmer, Boston, Mass.). Binding to the Europium labeled antibody took place for 40 minutes and HTRF signal was measured on a Fusion plate reader (Perkin Elmer, Boston, Mass.). […] Data is indicated as ranges, wherein “+” is less than 10 nM; “++” is 10 nM to 25 nM; “+++” is greater than 25 nM to 100 nM; and “++++” is greater than 100 nM. Greater than 25 nM to 100 nM specifies a range with a lower endpoint “at greater than 25 nM” and an upper endpoint at 100 nM.

JAK2 (a.a. 828-1132) = molecular target: T1, JAK2 (a.a. 828-1132) (Homo sapiens, UniProt O60674); assay: In vitro JAK kinase assay (HTRF, phosphorylation of biotinylated peptide), JAK2; assay type: biochemical; conditions: for IC50: read-out: JAK2 IC50 (nM) at 1 mM ATP, Table F; for pIC50: 1 mM ATP, read-out: JAK2 IC50
T1 construct: JAK2 (a.a. 828-1132); His tag (N)
T1 sequence (O60674 828-1132): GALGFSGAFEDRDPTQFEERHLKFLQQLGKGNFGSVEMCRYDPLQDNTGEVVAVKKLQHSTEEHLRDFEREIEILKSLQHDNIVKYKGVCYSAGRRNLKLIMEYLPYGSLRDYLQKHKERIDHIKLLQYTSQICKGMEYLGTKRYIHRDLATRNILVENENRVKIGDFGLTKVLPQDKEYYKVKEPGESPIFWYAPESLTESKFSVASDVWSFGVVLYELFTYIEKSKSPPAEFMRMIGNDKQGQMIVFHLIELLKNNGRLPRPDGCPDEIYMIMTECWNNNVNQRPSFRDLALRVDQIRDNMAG
Procedure: Compounds herein were tested for inhibitory activity of JAK targets according to the following in vitro assay described in Park et al., Analytical Biochemistry 1999, 269, 94-104. The catalytic domains of human JAK1 (a.a. 837-1142) and JAK2 (a.a. 828-1132) with an N-terminal His tag were expressed using baculovirus in insect cells and purified. The catalytic activity of JAK1 and JAK2 was assayed by measuring the phosphorylation of a biotinylated peptide. The phosphorylated peptide was detected by homogenous time resolved fluorescence (HTRF). […] Reactions were carried out at room temperature for 1 hour and then stopped with 20 μL 45 mM EDTA, 300 nM SA-APC, 6 nM Eu-Py20 in assay buffer (Perkin Elmer, Boston, Mass.). Binding to the Europium labeled antibody took place for 40 minutes and HTRF signal was measured on a Fusion plate reader (Perkin Elmer, Boston, Mass.). See Tables A-F for data related to compounds of the Examples (at 1 mM). Data is indicated as ranges, wherein “+” is less than 10 nM; “++” is 10 nM to 25 nM; “+++” is greater than 25 nM to 100 nM; and “++++” is greater than 100 nM. Greater than 25 nM to 100 nM specifies a range with a lower endpoint “at greater than 25 nM” and an upper endpoint at 100 nM.

Structure (SMILES) | pIC50 ([1]; Table A) | pIC50 (JAK2 (a.a. 828-1132); Table A) | pIC50 ([1]; Table B) | pIC50 (JAK2 (a.a. 828-1132); Table B) | other results
N#CCC1(n2cc(-c3ncnc4[nH]ccc34)cn2)CC(N2CCC(Oc3cc(CCO)nc(C(F)(F)F)n3)CC2)C1 (single isomer, unassigned; peak 1) [Example 164, peak 1, {trans-3-(4-{[6-(2-hydroxyethyl)-2-(trifluoromethyl)pyrimidin-4-yl]oxy}piperidin-1-yl)-1-[4-(7H-pyrrolo[2,3-d]pyrimidin-4-yl)-1H-pyrazol-1-yl]cyclobutyl}acetonitrile] | – | – | – | – | IC50 ([1]; read-out: JAK1 IC50 (nM) at 1 mM ATP, Table F, listed as 164, peak 1): 10 to 25 nM; IC50 (JAK2 (a.a. 828-1132)): > 100 nM
N#CCC1(n2cc(-c3ncnc4[nH]ccc34)cn2)CC(N2CCC(Oc3cc(CCO)nc(C(F)(F)F)n3)CC2)C1 (single isomer, unassigned; peak 2) [Example 164, peak 2, {cis-3-(4-{[6-(2-hydroxyethyl)-2-(trifluoromethyl)pyrimidin-4-yl]oxy}piperidin-1-yl)-1-[4-(7H-pyrrolo[2,3-d]pyrimidin-4-yl)-1H-pyrazol-1-yl]cyclobutyl}acetonitrile] | – | – | – | – | IC50 ([1]; read-out: JAK1 IC50 (nM) at 1 mM ATP, Table F, listed as 164, peak 2): 25 to 100 nM; IC50 (JAK2 (a.a. 828-1132)): > 100 nM
N#CC[C@]1(n2cc(-c3ncnc4[nH]ccc34)cn2)C[C@@H](N2CCN(Cc3cc(F)cc(C#N)c3)CC2)C1 [Example 1a, 3-[(4-{cis-3-(cyanomethyl)-3-[4-(7H-pyrrolo[2,3-d]pyrimidin-4-yl)-1H-pyrazol-1-yl]cyclobutyl}piperazin-1-yl)methyl]-5-fluorobenzonitrile] | > 8.00 | < 7.00 | – | – | –
N#CC[C@]1(n2cc(-c3ncnc4[nH]ccc34)cn2)C[C@H](N2CCN(Cc3cc(F)cc(C#N)c3)CC2)C1 [Example 1b, 3-[(4-{trans-3-(cyanomethyl)-3-[4-(7H-pyrrolo[2,3-d]pyrimidin-4-yl)-1H-pyrazol-1-yl]cyclobutyl}piperazin-1-yl)methyl]-5-fluorobenzonitrile] | – | – | > 8.00 | 7.00 to 7.60 | –
CN(C)c1ccc(CN2CCN([C@H]3C[C@@](CC#N)(n4cc(-c5ncnc6[nH]ccc56)cn4)C3)CC2)c(F)c1C#N [Example 2a, 3-[(4-{cis-3-(cyanomethyl)-3-[4-(7H-pyrrolo[2,3-d]pyrimidin-4-yl)-1H-pyrazol-1-yl]cyclobutyl}piperazin-1-yl)methyl]-6-(dimethylamino)-2-fluorobenzonitrile] | > 8.00 | 7.00 to 7.60 | – | – | –
CN(C)c1ccc(CN2CCN([C@H]3C[C@](CC#N)(n4cc(-c5ncnc6[nH]ccc56)cn4)C3)CC2)c(F)c1C#N [Example 2b, 3-[(4-{trans-3-(cyanomethyl)-3-[4-(7H-pyrrolo[2,3-d]pyrimidin-4-yl)-1H-pyrazol-1-yl]cyclobutyl}piperazin-1-yl)methyl]-6-(dimethylamino)-2-fluorobenzonitrile] | – | – | > 8.00 | 7.00 to 7.60 | –
C[C@H]1CCCN1C(=O)N1CCN([C@H]2C[C@@](CC#N)(n3cc(-c4ncnc5[nH]ccc45)cn3)C2)CC1 [Example 4a, {cis-3-(4-{[(2S)-2-methylpyrrolidin-1-yl]carbonyl}piperazin-1-yl)-1-[4-(7H-pyrrolo[2,3-d]pyrimidin-4-yl)-1H-pyrazol-1-yl]cyclobutyl}acetonitrile] | 7.00 to 7.60 | < 7.00 | – | – | –
C[C@H]1CCCN1C(=O)N1CCN([C@H]2C[C@](CC#N)(n3cc(-c4ncnc5[nH]ccc45)cn3)C2)CC1 [Example 4b, {trans-3-(4-{[(2S)-2-methylpyrrolidin-1-yl]carbonyl}piperazin-1-yl)-1-[4-(7H-pyrrolo[2,3-d]pyrimidin-4-yl)-1H-pyrazol-1-yl]cyclobutyl}acetonitrile] | – | – | > 8.00 | < 7.00 | –
CC[C@H]1CCCN1C(=O)N1CCN([C@H]2C[C@](CC#N)(n3cc(-c4ncnc5[nH]ccc45)cn3)C2)CC1 [Example 5, {trans-3-(4-{[(2S)-2-ethylpyrrolidin-1-yl]carbonyl}piperazin-1-yl)-1-[4-(7H-pyrrolo[2,3-d]pyrimidin-4-yl)-1H-pyrazol-1-yl]cyclobutyl}acetonitrile] | – | – | > 8.00 | < 7.00 | –
N#CC[C@]1(n2cc(-c3ncnc4[nH]ccc34)cn2)C[C@@H](N2CCN(C(=O)c3cc(F)cnc3Cl)CC2)C1 [Example 9a, {cis-3-{4-[(2-chloro-5-fluoropyridin-3-yl)carbonyl]piperazin-1-yl}-1-[4-(7H-pyrrolo[2,3-d]pyrimidin-4-yl)-1H-pyrazol-1-yl]cyclobutyl}acetonitrile] | 7.60 to 8.00 | < 7.00 | – | – | –

Now from value to compound, other results behind:

pIC50 ([1]; Table A) | pIC50 (JAK2 (a.a. 828-1132); Table A) | pIC50 ([1]; Table B) | pIC50 (JAK2 (a.a. 828-1132); Table B) | Structure (SMILES) | other results
7.00 to 7.60 | < 7.00 | – | – | N#CC[C@]1(n2cc(-c3ncnc4[nH]ccc34)cn2)C[C@@H](N2CCN(C(=O)Nc3ccc(F)cc3C(F)(F)F)CC2)C1 [Example 3a, 4-{cis-3-(cyanomethyl)-3-[4-(7H-pyrrolo[2,3-d]pyrimidin-4-yl)-1H-pyrazol-1-yl]cyclobutyl}-N-[4-fluoro-2-(trifluoromethyl)phenyl]piperazine-1-carboxamide 2.4×(trifluoroacetate) Salt] | –
– | – | 7.60 to 8.00 | < 7.00 | N#CC[C@]1(n2cc(-c3ncnc4[nH]ccc34)cn2)C[C@H](N2CCN(C(=O)Nc3ccc(F)cc3C(F)(F)F)CC2)C1 [Example 3b, 4-{3-(cyanomethyl)-3-[4-(7H-pyrrolo[2,3-d]pyrimidin-4-yl)-1H-pyrazol-1-yl]cyclobutyl}-N-[4-fluoro-2-(trifluoromethyl)phenyl]piperazine-1-carboxamide 2.3×(trifluoroacetate) Salt] | –
7.60 to 8.00 | < 7.00 | – | – | N#CC[C@]1(n2cc(-c3ncnc4[nH]ccc34)cn2)C[C@@H](N2CCN(C(=O)c3ccnc(C(F)(F)F)c3F)CC2)C1 [Example 6a, {cis-3-{4-[3-fluoro-2-(trifluoromethyl)isonicotinoyl]piperazin-1-yl}-1-[4-(7H-pyrrolo[2,3-d]pyrimidin-4-yl)-1H-pyrazol-1-yl]cyclobutyl}acetonitrile] | –
– | – | > 8.00 | 7.00 to 7.60 | N#CC[C@]1(n2cc(-c3ncnc4[nH]ccc34)cn2)C[C@H](N2CCN(C(=O)c3ccnc(C(F)(F)F)c3F)CC2)C1 [Example 6b, {trans-3-{4-[3-fluoro-2-(trifluoromethyl)isonicotinoyl]piperazin-1-yl}-1-[4-(7H-pyrrolo[2,3-d]pyrimidin-4-yl)-1H-pyrazol-1-yl]cyclobutyl}acetonitrile] | –
7.60 to 8.00 | < 7.00 | – | – | N#CC[C@]1(n2cc(-c3ncnc4[nH]ccc34)cn2)C[C@@H](N2CCN(C(=O)c3ccnc(C(F)(F)F)n3)CC2)C1 [Example 7a, [cis-1-[4-(7H-pyrrolo[2,3-d]pyrimidin-4-yl)-1H-pyrazol-1-yl]-3-(4-{[2-(trifluoromethyl)pyrimidin-4-yl]carbonyl}piperazin-1-yl)cyclobutyl]acetonitrile] | –
– | – | > 8.00 | 7.00 to 7.60 | N#CC[C@]1(n2cc(-c3ncnc4[nH]ccc34)cn2)C[C@H](N2CCN(C(=O)c3ccnc(C(F)(F)F)n3)CC2)C1 [Example 7b, [trans-1-[4-(7H-pyrrolo[2,3-d]pyrimidin-4-yl)-1H-pyrazol-1-yl]-3-(4-{[2-(trifluoromethyl)pyrimidin-4-yl]carbonyl}piperazin-1-yl)cyclobutyl]acetonitrile] | –
> 8.00 | 7.00 to 7.60 | – | – | N#CC[C@]1(n2cc(-c3ncnc4[nH]ccc34)cn2)C[C@@H](N2CCN(C(=O)c3cc(F)cc(F)c3)CC2)C1 [Example 8a, {cis-3-[4-(3,5-difluorobenzoyl)piperazin-1-yl]-1-[4-(7H-pyrrolo[2,3-d]pyrimidin-4-yl)-1H-pyrazol-1-yl]cyclobutyl}acetonitrile] | –
– | – | > 8.00 | > 8.00 | N#CC[C@]1(n2cc(-c3ncnc4[nH]ccc34)cn2)C[C@H](N2CCN(C(=O)c3cc(F)cc(F)c3)CC2)C1 [Example 8b, {trans-3-[4-(3,5-difluorobenzoyl)piperazin-1-yl]-1-[4-(7H-pyrrolo[2,3-d]pyrimidin-4-yl)-1H-pyrazol-1-yl]cyclobutyl}acetonitrile] | –
